For one assay, the target named is Human ACC2 (Homo sapiens, UniProt O00763). Put plainly: In vitro ACC2 inhibition assay (ADP-Glo), human ACC2. In kind it is biochemical. The following applies: 5 nM ACC2, 20 μM ATP, 20 μM acetyl-CoA.
For assay [1], the system named is C. parapsilosis ATCC 22019. The experiment in a line: Anti-Fungal Activity Assay (broth microtiter MIC), C. parapsilosis. In kind it is cell-based, Candida parapsilosis. The following applies: Lodderomyces parapsilosis, ATCC22019, 48 h, 3 replicates; MIC recorded at 48 h; read-out: MIC C. parapsilosis ATCC 22019. An outline of the steps:
(§1)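 MIC by visual comparison with growth control, read at 48 h (soraphen also at 24 h). Inoculum: colonies from overnight Sabouraud dextrose agar plates at 35° C, suspended in RPMI 1640+MOPS, density from standard curves. Microtiter broth dilution per CLSI M27-A3; compounds from 1 mg/mL DMSO stocks.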

The next assay concerns C. albicans ATCC 90028. The experiment in a line: Anti-Fungal Activity Assay (broth microtiter MIC), C. albicans. In kind it is cell-based, Candida albicans. The note with it: Candida albicans, ATCC90028, 48 h, 3 replicates; MIC recorded at 48 h; read-out: MIC C. albicans ATCC 90028. The essentials:
as §1

A further assay has as its system C. krusei ATCC 6258. Put plainly: Anti-Fungal Activity Assay (broth microtiter MIC), C. krusei. The following applies: Pichia kudriavzevii, ATCC6258, 48 h, 3 replicates; MIC recorded at 48 h; read-out: MIC C. krusei ATCC 6258. Format: cell-based, Candida krusei. The essentials: as §1
In a further assay the target is Fungal ACC2 (UniProt Q00955). The following applies: read-out: Fungal ACC2 (IC50, in vitro ACC2 inhibition).

≈ marks a conversion by molar mass, not a printed value. Where only a bound is given, the exact number is not on record here.

Sequence of Human ACC2 (O00763 whole entry): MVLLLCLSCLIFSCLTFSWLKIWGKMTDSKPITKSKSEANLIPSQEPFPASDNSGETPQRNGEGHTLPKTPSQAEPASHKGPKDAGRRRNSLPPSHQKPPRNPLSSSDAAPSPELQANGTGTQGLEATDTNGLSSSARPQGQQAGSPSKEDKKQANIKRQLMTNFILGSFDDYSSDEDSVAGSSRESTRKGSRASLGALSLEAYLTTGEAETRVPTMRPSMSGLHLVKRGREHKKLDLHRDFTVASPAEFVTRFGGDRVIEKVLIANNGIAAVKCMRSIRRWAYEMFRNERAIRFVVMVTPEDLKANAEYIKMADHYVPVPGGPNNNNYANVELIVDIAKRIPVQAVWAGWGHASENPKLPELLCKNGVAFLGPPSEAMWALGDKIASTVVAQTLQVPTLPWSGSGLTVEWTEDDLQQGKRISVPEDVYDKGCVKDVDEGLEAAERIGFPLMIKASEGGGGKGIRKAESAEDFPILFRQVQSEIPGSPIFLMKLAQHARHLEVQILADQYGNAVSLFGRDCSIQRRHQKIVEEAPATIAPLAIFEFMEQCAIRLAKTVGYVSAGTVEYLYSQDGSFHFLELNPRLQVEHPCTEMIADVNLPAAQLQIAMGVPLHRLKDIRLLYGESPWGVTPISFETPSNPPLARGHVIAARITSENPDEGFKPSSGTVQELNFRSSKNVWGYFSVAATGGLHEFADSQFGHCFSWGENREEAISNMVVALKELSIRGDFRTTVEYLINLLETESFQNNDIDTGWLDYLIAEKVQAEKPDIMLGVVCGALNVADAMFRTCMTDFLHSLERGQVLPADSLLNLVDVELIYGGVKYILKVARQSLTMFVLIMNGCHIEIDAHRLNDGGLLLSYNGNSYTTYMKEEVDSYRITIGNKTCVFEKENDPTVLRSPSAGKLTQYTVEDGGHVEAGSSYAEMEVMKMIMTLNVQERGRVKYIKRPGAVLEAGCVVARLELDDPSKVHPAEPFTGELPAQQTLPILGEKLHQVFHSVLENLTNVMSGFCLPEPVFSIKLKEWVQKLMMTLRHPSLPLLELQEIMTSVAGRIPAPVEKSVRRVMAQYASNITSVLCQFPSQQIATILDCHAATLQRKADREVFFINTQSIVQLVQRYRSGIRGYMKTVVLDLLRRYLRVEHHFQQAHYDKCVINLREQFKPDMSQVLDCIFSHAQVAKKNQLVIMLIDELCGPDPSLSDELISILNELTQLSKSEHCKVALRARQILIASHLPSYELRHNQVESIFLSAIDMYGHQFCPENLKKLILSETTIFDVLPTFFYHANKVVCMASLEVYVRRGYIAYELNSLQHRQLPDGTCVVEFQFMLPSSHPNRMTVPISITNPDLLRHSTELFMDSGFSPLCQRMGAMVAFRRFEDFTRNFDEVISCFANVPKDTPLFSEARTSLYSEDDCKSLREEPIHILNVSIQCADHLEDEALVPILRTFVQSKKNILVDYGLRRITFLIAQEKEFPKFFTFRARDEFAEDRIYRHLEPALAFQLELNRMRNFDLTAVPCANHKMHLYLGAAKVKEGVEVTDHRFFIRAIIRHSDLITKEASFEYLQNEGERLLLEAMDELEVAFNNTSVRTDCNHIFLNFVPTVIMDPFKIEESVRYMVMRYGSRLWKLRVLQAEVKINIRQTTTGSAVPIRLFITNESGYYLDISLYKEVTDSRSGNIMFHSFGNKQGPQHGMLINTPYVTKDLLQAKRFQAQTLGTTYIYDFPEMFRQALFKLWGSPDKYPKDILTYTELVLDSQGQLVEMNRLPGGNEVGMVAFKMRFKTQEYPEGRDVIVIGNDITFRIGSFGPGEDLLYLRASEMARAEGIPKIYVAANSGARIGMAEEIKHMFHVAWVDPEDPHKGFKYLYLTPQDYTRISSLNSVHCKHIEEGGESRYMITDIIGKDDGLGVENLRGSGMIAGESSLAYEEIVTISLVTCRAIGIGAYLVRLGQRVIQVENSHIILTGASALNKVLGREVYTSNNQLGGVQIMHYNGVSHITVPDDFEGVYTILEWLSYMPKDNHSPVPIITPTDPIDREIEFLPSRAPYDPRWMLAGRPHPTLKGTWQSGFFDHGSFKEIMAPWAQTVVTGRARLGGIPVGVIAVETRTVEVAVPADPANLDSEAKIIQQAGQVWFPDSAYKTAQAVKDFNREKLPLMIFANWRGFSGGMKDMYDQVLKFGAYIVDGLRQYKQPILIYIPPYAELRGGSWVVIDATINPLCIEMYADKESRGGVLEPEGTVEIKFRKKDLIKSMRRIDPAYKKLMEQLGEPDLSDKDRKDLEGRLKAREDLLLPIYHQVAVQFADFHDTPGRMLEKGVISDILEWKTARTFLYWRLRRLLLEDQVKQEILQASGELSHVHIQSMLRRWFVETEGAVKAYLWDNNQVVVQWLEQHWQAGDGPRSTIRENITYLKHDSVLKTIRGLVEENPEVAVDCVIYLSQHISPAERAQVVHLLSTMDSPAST
Sequence of Fungal ACC2 (Q00955 whole entry): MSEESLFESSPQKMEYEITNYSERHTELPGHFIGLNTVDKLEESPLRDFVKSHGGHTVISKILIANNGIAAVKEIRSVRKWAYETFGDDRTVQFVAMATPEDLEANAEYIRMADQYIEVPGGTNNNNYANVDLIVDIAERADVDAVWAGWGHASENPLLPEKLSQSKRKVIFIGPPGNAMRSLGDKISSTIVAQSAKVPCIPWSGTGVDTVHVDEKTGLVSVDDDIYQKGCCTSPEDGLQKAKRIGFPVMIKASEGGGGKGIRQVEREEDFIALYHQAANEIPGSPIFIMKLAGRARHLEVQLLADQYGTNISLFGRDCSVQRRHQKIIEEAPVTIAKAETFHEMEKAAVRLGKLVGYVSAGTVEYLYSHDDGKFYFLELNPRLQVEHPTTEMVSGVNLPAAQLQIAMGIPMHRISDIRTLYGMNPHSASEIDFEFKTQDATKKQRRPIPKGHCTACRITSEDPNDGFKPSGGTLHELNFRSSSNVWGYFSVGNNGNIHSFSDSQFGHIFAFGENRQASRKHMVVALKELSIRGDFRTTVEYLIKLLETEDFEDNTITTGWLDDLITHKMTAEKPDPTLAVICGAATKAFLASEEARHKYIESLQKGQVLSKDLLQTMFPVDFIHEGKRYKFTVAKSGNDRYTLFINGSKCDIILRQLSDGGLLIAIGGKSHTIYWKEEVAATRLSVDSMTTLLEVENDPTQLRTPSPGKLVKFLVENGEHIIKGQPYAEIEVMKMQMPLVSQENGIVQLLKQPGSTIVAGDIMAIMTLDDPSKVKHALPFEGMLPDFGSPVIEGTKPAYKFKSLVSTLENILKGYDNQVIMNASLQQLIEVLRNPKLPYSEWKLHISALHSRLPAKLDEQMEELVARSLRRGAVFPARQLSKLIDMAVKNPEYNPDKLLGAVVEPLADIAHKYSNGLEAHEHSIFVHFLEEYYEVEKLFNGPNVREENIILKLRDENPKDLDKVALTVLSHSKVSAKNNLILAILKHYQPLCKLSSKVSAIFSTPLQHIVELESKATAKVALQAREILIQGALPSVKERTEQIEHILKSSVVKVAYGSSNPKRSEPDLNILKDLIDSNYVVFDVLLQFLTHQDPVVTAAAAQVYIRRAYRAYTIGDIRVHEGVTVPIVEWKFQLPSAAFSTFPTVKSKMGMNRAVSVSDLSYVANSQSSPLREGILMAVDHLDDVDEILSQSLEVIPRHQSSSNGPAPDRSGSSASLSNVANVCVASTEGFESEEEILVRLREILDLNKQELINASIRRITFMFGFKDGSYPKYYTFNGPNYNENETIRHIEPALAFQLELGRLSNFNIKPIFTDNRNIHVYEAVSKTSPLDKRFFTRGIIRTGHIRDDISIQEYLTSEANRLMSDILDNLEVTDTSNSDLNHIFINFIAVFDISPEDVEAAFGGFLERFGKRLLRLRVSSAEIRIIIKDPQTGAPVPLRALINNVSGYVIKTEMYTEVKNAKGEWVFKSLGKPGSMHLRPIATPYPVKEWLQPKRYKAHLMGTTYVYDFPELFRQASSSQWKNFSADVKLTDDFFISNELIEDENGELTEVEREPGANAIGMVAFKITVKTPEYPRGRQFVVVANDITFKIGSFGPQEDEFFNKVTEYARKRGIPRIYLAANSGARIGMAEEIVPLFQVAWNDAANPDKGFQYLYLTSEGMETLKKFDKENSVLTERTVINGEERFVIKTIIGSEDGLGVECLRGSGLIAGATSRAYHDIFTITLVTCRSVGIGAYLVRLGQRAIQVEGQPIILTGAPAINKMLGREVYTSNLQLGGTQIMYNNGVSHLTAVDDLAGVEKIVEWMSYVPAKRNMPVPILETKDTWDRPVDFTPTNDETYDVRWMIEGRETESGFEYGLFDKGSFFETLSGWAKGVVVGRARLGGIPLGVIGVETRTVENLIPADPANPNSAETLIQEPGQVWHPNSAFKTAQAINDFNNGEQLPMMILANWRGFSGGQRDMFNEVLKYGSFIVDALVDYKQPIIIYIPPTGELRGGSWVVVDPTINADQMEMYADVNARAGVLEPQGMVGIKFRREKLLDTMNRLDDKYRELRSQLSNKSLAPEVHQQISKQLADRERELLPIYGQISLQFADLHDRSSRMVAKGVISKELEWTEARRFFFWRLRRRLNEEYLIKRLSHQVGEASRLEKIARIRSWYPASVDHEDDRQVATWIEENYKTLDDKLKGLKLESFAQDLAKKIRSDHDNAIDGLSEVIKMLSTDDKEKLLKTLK

For orientation: IC50 means the midpoint of a concentration-inhibition curve. As usually defined, the MIC is the lowest concentration found to suppress growth. Turning to `COCCO[C@@H](Cn1c(=O)n([C@H]2CCN(C(C)C)C2=O)c(=O)c2c(C)c(-n3nccn3)sc21)c1cc(F)ccc1OC` [Compound I-104, 1-((R)-2-(5-fluoro-2-methoxyphenyl)-2-(2-methoxy-ethoxy)ethyl)-3-((S)-1-isopropyl-2-oxopyrrolidin-3-yl)-5-methyl-6-(2H-1,2,3-triazol-2-yl)thieno[2,3-d]pyrimidine-2,4(1H,3H)-dione], the IC50 against Human ACC2 lay in the range of 10 to 100 nM; at Fungal ACC2, 0.7 to 2 nM. The MIC (in assay [1]; with C. albicans ATCC 90028; with C. krusei ATCC 6258) was 2.1 to 4 µg/mL (≈ 3.5 to 6.66 µM) in each case.

Regarding `COCCO[C@@H](Cn1c(=O)n([C@@]2(C)CCC(=O)N(C)C2)c(=O)c2c(C)c(-n3nccn3)sc21)c1cc(F)ccc1OC` [Compound I-137, 3-((S)-1,3-dimethyl-6-oxopiperidin-3-yl)-1-((R)-2-(5-fluoro-2-methoxyphenyl)-2-(2-methoxyethoxy)ethyl)-5-methyl-6-(2H-1,2,3-triazol-2-yl)thieno[2,3-d]pyrimidine-2,4(1H,3H)-dione], the IC50 against Human ACC2 lay within 10 to 100 nM; at Fungal ACC2, 2 to 10 nM. Moreover, the MIC (in assay [1]; in the assay with C. albicans ATCC 90028; in the assay on C. krusei ATCC 6258) was 2.1 to 4 µg/mL (≈ 3.5 to 6.66 µM) in each case.

As for `COc1ccc(F)cc1[C@H](Cn1c(=O)n([C@@]2(C)CNC(=O)C2)c(=O)c2c(C)c(-n3nccn3)sc21)OCCO` [Compound I-118, 1-((R)-2-(5-fluoro-2-methoxyphenyl)-2-(2-hydroxy-ethoxy)ethyl)-5-methyl-3-((R)-3-methyl-5-oxopyrrolidin-3-yl)-6-(2H-1,2,3-triazol-2-yl)thieno[2,3-d]pyrimidine-2,4(1H,3H)-dione], the IC50 on Human ACC2 lay within 10 to 100 nM; on Fungal ACC2 it was 2 to 10 nM. For the same compound, the MIC (in assay [1]; in the assay with C. albicans ATCC 90028; with C. krusei ATCC 6258) was 2.1 to 4 µg/mL (≈ 3.76 to 7.16 µM) each time.

`COc1ccc(F)cc1[C@H](Cn1c(=O)n([C@@H]2CCN(C)C2=O)c(=O)c2c(C)c(-n3cccn3)sc21)O[C@H]1CC[C@@H](O)CC1` [Compound I-181, 1-((R)-2-(5-fluoro-2-methoxyphenyl)-2-(((I s, 4S)-4-hydroxycyclohexyl)oxy)ethyl)-5-methyl-3-((R)-1-methyl-2-oxopyrrolidin-3-yl)-6-(1H-pyrazol-1-yl)thieno[2,3-d]pyrimidine-2,4(1H,3H)-dione]: the IC50 on Human ACC2 fell in the range of 2 to 10 nM; on Fungal ACC2, 0.7 to 2 nM. In addition, the minimum inhibitory concentration (MIC) in assay [1] is 1.1 to 2 µg/mL (≈ 1.8 to 3.27 µM); in the assay on C. albicans ATCC 90028, 0.25 to 1 µg/mL (≈ 0.409 to 1.63 µM); in the assay on C. krusei ATCC 6258, 1.1 to 2 µg/mL (≈ 1.8 to 3.27 µM).

On to `COCCO[C@@H](Cn1c(=O)n([C@@H]2CNC(=O)C2)c(=O)c2c(C)c(-n3nccn3)sc21)c1cc(F)ccc1OC` [Compound I-90, 1-((R)-2-(5-fluoro-2-methoxyphenyl)-2-(2-methoxy-ethoxy)ethyl)-5-methyl-3-((S)-5-oxopyrrolidin-3-yl)-6-(2H-1,2,3-triazol-2-yl)thieno[2,3-d]pyrimidine-2,4(1H,3H)-dione], for which the IC50 at Human ACC2 lay in the range of 2 to 10 nM; at Fungal ACC2, 0.7 to 2 nM. For the same compound, the MIC (in assay [1]; in the assay with C. albicans ATCC 90028; with C. krusei ATCC 6258) was 2.1 to 4 µg/mL (≈ 3.76 to 7.16 µM) each time.

For the compound `COc1ccc(F)cc1[C@H](Cn1c(=O)n([C@@H]2CCN(C)C2=O)c(=O)c2c(C)c(-n3nccn3)sc21)OC` [Compound I-170, 1-((R)-2-(5-fluoro-2-methoxyphenyl)-2-methoxyethyl)-5-methyl-3-((R)-1-methyl-2-oxopyrrolidin-3-yl)-6-(2H-1,2,3-triazol-2-yl)thieno[2,3-d]pyrimidine-2,4(1H,3H)-dione], the values for the IC50 against Human ACC2 and at Fungal ACC2 were 10 to 100 nM and 0.7 to 2 nM, respectively. Besides, the minimum inhibitory concentration (MIC) (in assay [1]; with C. albicans ATCC 90028; with C. krusei ATCC 6258) was 2.1 to 4 µg/mL (≈ 3.97 to 7.57 µM) each time.

In the case of `COc1ccc(F)cc1[C@H](Cn1c(=O)n(C2CCCN(C)C2=O)c(=O)c2c(C)c(-n3nccn3)sc21)OC1CCOCC1` (stereo partly drawn) [Compound I-22, 1-((R)-2-(5-fluoro-2-methoxyphenyl)-2-((tetrahydro-2H-pyran-4-yl)oxy)ethyl)-5-methyl-3-(1-methyl-2-oxopiperidin-3-yl)-6-(2H-1,2,3-triazol-2-yl)thieno[2,3-d]pyrimidine-2,4(1H,3H)-dione], the IC50 against Human ACC2 was 10 to 100 nM; on Fungal ACC2, 0.7 to 2 nM. Further, the MIC (in assay [1]; in the assay on C. albicans ATCC 90028; with C. krusei ATCC 6258) was 0.25 to 1 µg/mL (≈ 0.408 to 1.63 µM) in each case.

Consider `COCCO[C@@H](Cn1c(=O)n([C@@H]2CCN(C(C)C)C2=O)c(=O)c2c(C)c(-n3nccn3)sc21)c1cc(F)ccc1OC` [Compound I-105, 1-((R)-2-(5-fluoro-2-methoxyphenyl)-2-(2-methoxy-ethoxy)ethyl)-3-((R)-1-isopropyl-2-oxopyrrolidin-3-yl)-5-methyl-6-(2H-1,2,3-triazol-2-yl)thieno[2,3-d]pyrimidine-2,4(1H,3H)-dione], for which the figures for the IC50 on Human ACC2 and on Fungal ACC2 were 10 to 100 nM and 2 to 10 nM, respectively. The MIC (in assay [1]; in the assay on C. albicans ATCC 90028; with C. krusei ATCC 6258) was 2.1 to 4 µg/mL (≈ 3.5 to 6.66 µM) each time.

On to `COc1ccc(F)cc1[C@H](Cn1c(=O)n(C2CCN(C)C2=O)c(=O)c2c(C)c(-c3ncco3)sc21)OCCO` (stereo partly drawn) [Compound I-55, 1-((R)-2-(5-fluoro-2-methoxyphenyl)-2-(2-hydroxy-ethoxy)ethyl)-5-methyl-3-(-methyl-2-oxopyrrolidin-3-yl)-6-(oxazol-2-yl)thieno[2,3-d]pyrimidine-2,4(1H,3H)-dione], for which the IC50 at Human ACC2 lay within 10 to 100 nM; on Fungal ACC2 it was 0.7 to 2 nM. In addition, the minimal inhibitory concentration (MIC) (in assay [1]; in the assay on C. albicans ATCC 90028; with C. krusei ATCC 6258) was 2.1 to 4 µg/mL (≈ 3.76 to 7.16 µM) in each case.

Take `COc1ccc(F)cc1[C@H](Cn1c(=O)n([C@H]2CCN(C)C2=O)c(=O)c2c(C)c(-n3nccn3)sc21)O[C@H]1CC[C@@H](O)CC1` [Compound I-152, 1-((R)-2-(5-fluoro-2-methoxyphenyl)-2-(((1 s, 4S)-4-hydroxycyclohexyl)oxy)ethyl)-5-methyl-3-((S)-1-methyl-2-oxopyrrolidin-3-yl)-6-(2H-1,2,3-triazol-2-yl)thieno[2,3-d]pyrimidine-2,4(1H,3H)-dione]: the IC50 against Human ACC2 and on Fungal ACC2 was 2 to 10 nM each time. The MIC (in assay [1]; with C. albicans ATCC 90028; in the assay with C. krusei ATCC 6258) was 0.25 to 1 µg/mL (≈ 0.408 to 1.63 µM) throughout.

Consider `COCCO[C@@H](Cn1c(=O)n([C@]2(C)CCCNC2=O)c(=O)c2c(C)c(-n3nccn3)sc21)c1cc(F)ccc1OC` [Compound I-124, 1-((R)-2-(5-fluoro-2-methoxyphenyl)-2-(2-methoxy-ethoxy)ethyl)-5-methyl-3-((R)-3-methyl-2-oxopiperidin-3-yl)-6-(2H-1,2,3-triazol-2-yl)thieno[2,3-d]pyrimidine-2,4(1H,3H)-dione], for which the IC50 fell in the range of 10 to 100 nM at Human ACC2 and 2 to 10 nM at Fungal ACC2. For the same compound, the MIC (in assay [1]; in the assay on C. albicans ATCC 90028; in the assay with C. krusei ATCC 6258) was 2.1 to 4 µg/mL (≈ 3.58 to 6.82 µM) each time.

Consider `COCCO[C@@H](Cn1c(=O)n([C@H]2CCN(C)C2=O)c(=O)c2c(C)c(-n3nccn3)sc21)c1cc(F)ccc1O` [Compound I-157, 1-((R)-2-(5-fluoro-2-hydroxyphenyl)-2-(2-methoxyethoxy)ethyl)-5-methyl-3-((S)-1-methyl-2-oxopyrrolidin-3-yl)-6-(2H-1,2,3-triazol-2-yl)thieno[2,3-d]pyrimidine-2,4(1H,3H)-dione], for which the IC50 was in the range of 100 to 1000 nM on Human ACC2 and 2 to 10 nM at Fungal ACC2. Besides, the MIC (in assay [1]; with C. albicans ATCC 90028; in the assay with C. krusei ATCC 6258) was 2.1 to 4 µg/mL (≈ 3.76 to 7.16 µM) each time.

As for `COc1ccc(F)cc1[C@H](Cn1c(=O)n([C@@H]2CCNC2=O)c(=O)c2c(C)c(-c3ncco3)sc21)OCCO` [Compound I-69, 1-((R)-2-(5-fluoro-2-methoxyphenyl)-2-(2-hydroxy-ethoxy)ethyl)-5-methyl-6-(oxazol-2-yl)-3-((R)-2-oxopyrrolidin-3-yl)thieno[2,3-d]pyrimidine-2,4(1H,3H)-dione], the IC50 against Human ACC2 is 10 to 100 nM; at Fungal ACC2, 2 to 10 nM. In addition, the MIC (in assay [1]; with C. albicans ATCC 90028; in the assay on C. krusei ATCC 6258) was 2.1 to 4 µg/mL (≈ 3.86 to 7.35 µM) in each case.

On to `CCN1CCCC(n2c(=O)c3c(C)c(-n4nccn4)sc3n(C[C@H](OCCOC)c3cc(F)ccc3OC)c2=O)C1=O` (stereo partly drawn) [Compound I-15, 3-(1-ethyl-2-oxopiperidin-3-yl)-1-((R)-2-(5-fluoro-2-methoxyphenyl)-2-(2-methoxyethoxy)ethyl)-5-1-methyl-6-(2H-1,2,3-triazol-2-yl)thieno[2,3-d]pyrimidine-2,4(1H,3H)-dione], for which the IC50 on Human ACC2 and at Fungal ACC2 was 10 to 100 nM in each case. In addition, the MIC (in assay [1]; in the assay on C. albicans ATCC 90028; with C. krusei ATCC 6258) was 2.1 to 4 µg/mL (≈ 3.5 to 6.66 µM) each time.

In the case of `COCCO[C@@H](COc1nc2sc(-n3nccn3)c(C)c2c(=O)n1[C@@H]1CCN(C(=O)C(C)C)C1)c1cc(F)ccc1OC` [Compound I-101, 2-((R)-2-(5-fluoro-2-methoxyphenyl)-2-(2-methoxy-ethoxy)ethoxy)-3-((R)-1-isobutyrylpyrrolidin-3-yl)-5-methyl-6-(2H-1,2,3-triazol-2-yl)thieno[2,3-d]pyrimidin-4(3H)-one], the figures for the IC50 against Human ACC2 and on Fungal ACC2 were above 1000 nM and 10 to 100 nM, respectively. Moreover, the MIC (in assay [1]; in the assay with C. albicans ATCC 90028; with C. krusei ATCC 6258) was 2.1 to 4 µg/mL (≈ 3.42 to 6.51 µM) each time.

These data come from patent US20190330224A1, “ACC INHIBITORS AND USES THEREOF” (Gilead Apollo, LLC, priority 2015, published 2019).
